From patent publication US9745339B2 (GRAFFINITY PHARMACEUTICALS GMBH, priority 2012, dated 2017)

Legend:
Cetuximab = test: Microtiter plate chromatography of resins: binding and elution of Cetuximab; conditions: fraction of injected protein bound; 0.5 mg/ml IgG in PBS pH 7.3
Outline: (§1)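 About 30 μl resin columns loaded with 3.3 cv IgG at 0.5 mg ml^−1 in PBS (or undiluted HCP), washed with 5 cv PBS, eluted with 5 cv glycine pH 2.5. Fractions quantified by Bradford; bound fraction = (mi−mft)/mi, yield = me/mi.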

Tocilizumab = test: Microtiter plate chromatography of resins: binding and elution of Tocilizumab; conditions: fraction of injected protein bound; 0.5 mg/ml IgG in PBS pH 7.3
Outline: as §1

[1] = tested on: poly-IgG from human serum (h-poly-IgG); test: Microtiter plate chromatography of resins: binding and elution of human poly-IgG; conditions: fraction of injected protein bound; 0.5 mg/ml IgG in PBS pH 7.3
Outline: as §1

Palivizumab = test: Microtiter plate chromatography of resins: binding and elution of Palivizumab; conditions: fraction of injected protein bound; 0.5 mg/ml IgG in PBS pH 7.3
Outline: as §1

Bevacizumab [2] = target: T1, Bevacizumab (Homo sapiens, UniProt P01857); test: Langmuir isotherms by batch adsorption; format: binding; conditions: for Kd: Bevacizumab 0.05-5 mg/ml in PBS pH 7.3, 25° C., at least 3 h, read-out: kd (dissociation constant, Langmuir isotherm) (converted); for qm (maximum capacity): mg Bevacizumab per ml of resin, Langmuir isotherm
T1 construct: 0.5 mg/ml IgG in PBS pH 7.3; ligand immobilized on SEPHAR; Bevacizumab Yield; other: mass eluted (glycine pH 2.5) / mass injected; kd (dissociation constant, Langmuir isotherm); other: Bevacizumab 0.05-5 mg/ml in PBS pH 7.3, 25° C., at least 3 h; qm (maximum capacity); other: mg Bevacizumab per ml of resin; Langmuir isotherm; t0; fused on or other part: Humanized anti-VEGF-A VH domain joined N-terminally to the IGHG1 constant region (engineered, no UniProt entry)
Experimental: Experiments were performed with Bevacizumab as antibody. Parameters of Langmuir isotherms for purified antibody were determined by batch adsorption experiments in 96-well microtiter plates. In each well, 10 μl of sorbent slurry (50% v/v) were mixed with 100 μl of protein solution. Initial concentrations varied from 0.05-5 mg/ml in phosphate-buffered saline (0.15 M NaCl, 20 mM phosphate buffer, pH 7.3; PBS). Reactions were agitated vigorously at 25° C. for at least 3 h. Afterwards, antibody concentration in the supernatants were measured by Bradford assay. Data was evaluated by direct fitting of the values with the Langmuir isotherm equation (1).
Parameters of Langmuir isotherms, i.e. dissociation constants Kd and maximum capacities qm, were determined from the measured concentrations in the supernatants. Parameters were estimated by numerical fitting of the model equation derived by Chase (1)

host cell proteins (HCP) = test: Microtiter plate chromatography of resins: binding of host cell proteins; design: species or system CHO cell culture; conditions: fraction of injected undiluted host cell proteins bound
Outline: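 Undiluted HCP-containing flowthrough from protein A chromatography of CHO serum-free culture was loaded onto ~30 µl packed resin columns in microtiter-plate format. Columns were washed with 5 cv PBS and eluted with glycine pH 2.5, and fractions were quantified by Bradford. Bound fraction = (injected − flowthrough mass)/injected mass.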

Bevacizumab [3] = target: T1, Bevacizumab; test: Uptake kinetics by batch adsorption (time-scale of binding); conditions: time after which 80% of equilibrium saturation occurred; 0.75 mg/ml Bevacizumab in PBS, 25° C.
Experimental: Uptake kinetics was investigated similarly by batch adsorption in 96-well filter plates. Again, 10 μl of sorbent slurry (50% v/v) were mixed with 100 μl of protein solution. […] Reactions were agitated vigorously at 25° C. for up to 80 min. Supernatants were separated rapidly by spinning through filters after 2.5, 5, 10, 20, 40 and 80 minutes and sampled for analysis. Concentrations of the antibody were analyzed by Bradford assay.
For determination of t0.8, measured concentrations in the supernatant were interpolated by fitting of double-exponentials and values of t0.8 were read out from graphs (2).

[4] = Alkaline stability of ligands in 0.5 M sodium hydroxide; format: physicochemical; conditions: 25° C., 8 days, hydrolysis monitored by LC-MS, read-out: t0.5 (half-life) (converted)
Experimental: A subset of ligands from Example 1 was tested for its alkaline stability. Ligands were treated with 0.5 M sodium hydroxide at 25° C. for 8 days. Hydrolysis was monitored by LC-MS analysis.

Bevacizumab [5] = target: T1, Bevacizumab; test: Microtiter plate chromatography of resins: binding and elution of Bevacizumab; conditions: for Bevacizumab Bound: fraction of injected protein bound, 0.5 mg/ml IgG in PBS pH 7.3, ligand immobilized on SEPHAROSE 4 FF; for Bevacizumab Yield: mass eluted (glycine pH 2.5) / mass injected
Outline: (§2)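 About 30 μl packed resin columns loaded with 3.3 cv IgG at 0.5 mg ml^−1 in PBS or undiluted HCP, washed with 5 cv PBS, eluted with 5 cv glycine pH 2.5. Protein in fractions by Bradford. Bound fraction = (injected − flowthrough)/injected; yield = eluted/injected; selectivity = Bevacizumab bound fraction / HCP bound fraction, truncated beyond 10.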

Bevacizumab [6] = test: as above; conditions: fraction of bound Bevacizumab divided by fraction of bound HCP; truncated for values beyond 10
Outline: as §2

SMILES	Cetuximab Bound (Cetuximab) [%]	Tocilizumab Bound (Tocilizumab) [%]	h-poly-IgG Bound [1] [%]	Palivizumab Bound (Palivizumab) [%]	Kd (Bevacizumab [2]) [µM]	qm (maximum capacity) (Bevacizumab [2]) [mg/mL]	t0.8 (time-scale of binding) (Bevacizumab [3]) [min]	half-life [4] [days]	Bevacizumab Bound (Bevacizumab [5]) [%]	Bevacizumab Yield (Bevacizumab [5]) [%]	HCP Bound (host cell proteins (HCP)) [%]	Selectivity (Bevacizumab [6])
Cn1nc(C(=O)Nc2ccc3c(c2)ncn3CCCN)c2ccccc21 [Ligand L01, 1-(3-Amino-1-propyl)-5-[(1-methylindazol-3-yl)carboxamido]benzimidazole]	100	100	100	99	210	40	9.2	35	100	90	33	
COc1ccc(NC(=O)c2nn(CCCN)c3ccccc23)cc1C(N)=O [Ligand L04, 1-(3-Amino-1-propyl)indazole-3-carboxylic acid N-(3-carbamoyl-4-methoxyphenyl) amide]	100	100	100	85				> 41.6	100	98	28	3.6
NCCCn1cnc2cc(C(=O)Nc3nncs3)ccc21 [Ligand L13, 1-(3-Amino-1-propyl)benzimidazole-5-carboxylic acid N-(1,3,4-thiadiazol-2-yl) amide]	100	100	97	97		37	7.0	> 41.6	100	98	21	
NCCCn1cnc2cc(C(=O)Nc3nc(-c4ccccn4)cs3)ccc21 [Ligand L23, 1-(3-Amino-1-propyl)benzimidazole-5-carboxylic acid N-[4-(2-pyridyl)thiazol-2-yl] amide]	100	100	100	100	122	46	7.7	> 41.6	100	107	13	
NCCCn1cnc2cc(NC(=O)c3cn4ccsc4n3)ccc21 [Ligand L30, 1-(3-Amino-1-propyl)-5-[(imidazo-[2,1-b]thiazol-6-yl)carboxamido]benzimidazole]	100	100	94	93	358	40	9.3	37.6	100	100	21	
Cc1nsc(NC(=O)c2ccc3c(c2)ncn3CCCN)n1 [Ligand L36, 1-(3-Amino-1-propyl)benzimidazole-5-carboxylic acid N-(3-methyl-1,2,4-thiadiazol-5-yl) amide]	99	90	81	93	740	35		> 41.6	100	104	9	

Now from value to compound, other results behind:

Cetuximab Bound (Cetuximab) [%]	Tocilizumab Bound (Tocilizumab) [%]	h-poly-IgG Bound [1] [%]	Palivizumab Bound (Palivizumab) [%]	Kd (Bevacizumab [2]) [µM]	qm (maximum capacity) (Bevacizumab [2]) [mg/mL]	t0.8 (time-scale of binding) (Bevacizumab [3]) [min]	half-life [4] [days]	Bevacizumab Bound (Bevacizumab [5]) [%]	Bevacizumab Yield (Bevacizumab [5]) [%]	SMILES	HCP Bound (host cell proteins (HCP)) [%]	Selectivity (Bevacizumab [6])
100	100	94	90	200	38	8.8	> 41.6	100	93	CCc1nnc(NC(=O)c2ccc3c(c2)ncn3CCCN)s1 [Ligand L07, 1-(3-Amino-1-propyl)benzimidazole-5-carboxylic acid N-(2-ethyl-1,3,4-thiadiazol-5-yl) amide]	23	
100	100	92	89	212	35		> 41.6	100	100	Cc1nnc(NC(=O)c2ccc3c(c2)ncn3CCCN)s1 [Ligand L14, 1-(3-Amino-1-propyl)benzimidazole-5-carboxylic acid N-(2-methyl-1,3,4-thiadiazol-5-yl) amide]	16	
100	100	98	99	578	42	8.9	> 41.6	100	98	NCCCNc1ccc(C(=O)Nc2nnc(-c3ccco3)s2)cn1 [Ligand L19, 6-[(3-Amino-1-propyl)amino]nicotinic acid N-[5-(2-furyl)-1,3,4-thiadiazol-2-yl]amide]	14	
100	100	100	100	583	42	9.4	> 41.6	100	101	NCCCn1c(=O)[nH]c2cc(C(=O)Nc3nnc(-c4ccco4)s3)ccc21 [Ligand L24, 1-(3-Amino-1-propyl)-2-oxo-2,3-dihydrobenzimidazole-5-carboxylic acid N-[5-(2-furyl)-1,3,4-thiadiazol-2-yl] amide]	12	
100	100	100	100		49	7.8	> 41.6	100	85	Cc1nc2cc(C(=O)Nc3nnc(-c4ccco4)s3)ccc2n1CCCN [Ligand L39, 1-(3-Amino-1-propyl)-2-methylbenzimidazole-5-carboxylic acid N-[5-(2-furyl)-1,3,4-thiadiazol-2-yl] amide]	10	
100	100	100	100				> 41.6	100	93	COc1nc2cc(C(=O)Nc3nnc(-c4ccco4)s3)ccc2n1CCCN [Ligand L45, 1-(3-Amino-1-propyl)-2-methoxybenzimidazole-5-carboxylic acid N-[5-(2-furyl)-1,3,4-thiadiazol-2-yl] amide]	15	6.7
